The values below come from US6903095B2, “Phthalimido derivatives and a process for their preparation” (Hoffmann-La Roche Inc., priority 2002, dated 2005).

In one experiment the target is T1, human MAO-B (Homo sapiens, UniProt P27338).
T1 construct: expressed in transfected cells; host or cells: EBNA cells (transient transfection; cell membranes used)
T1 sequence (P27338 1-520): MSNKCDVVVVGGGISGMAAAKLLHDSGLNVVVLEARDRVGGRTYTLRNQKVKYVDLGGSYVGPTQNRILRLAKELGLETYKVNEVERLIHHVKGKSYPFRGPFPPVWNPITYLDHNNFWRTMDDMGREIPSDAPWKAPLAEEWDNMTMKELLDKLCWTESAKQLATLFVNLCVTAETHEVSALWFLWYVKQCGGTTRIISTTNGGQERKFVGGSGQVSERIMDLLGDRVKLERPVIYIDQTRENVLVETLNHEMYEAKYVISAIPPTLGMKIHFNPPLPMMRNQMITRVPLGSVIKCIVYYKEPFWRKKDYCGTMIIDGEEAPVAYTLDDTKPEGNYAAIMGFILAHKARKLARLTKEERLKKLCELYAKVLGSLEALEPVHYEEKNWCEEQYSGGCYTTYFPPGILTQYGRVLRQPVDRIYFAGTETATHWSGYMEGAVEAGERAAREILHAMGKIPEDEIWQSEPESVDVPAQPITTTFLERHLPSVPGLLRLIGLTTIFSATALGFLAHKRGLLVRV
Briefly: MAO-B enzymatic activity, spectrophotometric assay (Amplex Red, tyramine substrate) on membranes of transfected EBNA cells. Format: biochemical. Particulars: 30 min preincubation at 37° C., pH 7.4, tyramine substrate. How it is done:
(§1) The cDNA's encoding human MAO-A and MAO-B were transiently transfected into EBNA cells using the procedure described by E.-J. Schlaeger and K. Christensen (Transient Gene Expression in Mammalian Cells Grown in Serum-free Suspension Culture; Cytotechnology, 15: 1-13, 1998). After transfection, cells were homogenized by means of a Polytron homogenizer in 20 mM Tris HCl buffer, pH 8.0, containing 0.5 mM EGTA and 0.5 mM phenylmethanesulfonyl fluoride. Cell membranes were obtained by centrifugation at 45,000×g and, after two rinsing step with 20 mM Tris HCl buffer, pH 8.0, containing 0.5 mM EGTA, membranes were eventually re-suspended in the above buffer and aliquots stored at −80° C. until use.
(§2) MAO-A and MAO-B enzymatic activity was assayed in 96-well-plates using a spectrophotometric assay adapted from the method described by M. Zhou and N. Panchuk-Voloshina (A One-Step Fluorometric Method for the Continuous Measurement of Monoamine Oxidase Activity, Analytical Biochemistry, 253: 169-174, 1997). Briefly, membrane aliquots were incubated in 0.1 M potassium phosphate buffer, pH 7.4, for 30 min at 37° C. with or without various concentrations of the compounds. After this period, the enzymatic reaction was started by the addition of the MAO substrate tyramine together with 1 U/ml horse-radish peroxidase (Roche Biochemicals) and 80 μM N-acetyl-3,7,-dihydroxyphenoxazine (Amplex Red, Molecular Probes). The samples were further incubated for 30 min at 37° C. in a final volume of 200 μl and absorbance was then determined at a wavelength of 570 nm using a SpectraMax plate reader (Molecular Devices). Background (non-specific) absorbance was determined in the presence of 10 μM clorgyline for MAO-A or 10 μM L-deprenyl for MAO-B.
(§3) IC50 values were determined from inhibition curves obtained using nine inhibitor concentrations in duplicate, by fitting data to a four parameter logistic equation using a computer program.

In the next experiment the target is T2, human MAO-A (Homo sapiens, UniProt P21397).
T2 construct: expressed in transfected cells; host or cells: EBNA cells (transient transfection; cell membranes used)
T2 sequence (P21397 1-527): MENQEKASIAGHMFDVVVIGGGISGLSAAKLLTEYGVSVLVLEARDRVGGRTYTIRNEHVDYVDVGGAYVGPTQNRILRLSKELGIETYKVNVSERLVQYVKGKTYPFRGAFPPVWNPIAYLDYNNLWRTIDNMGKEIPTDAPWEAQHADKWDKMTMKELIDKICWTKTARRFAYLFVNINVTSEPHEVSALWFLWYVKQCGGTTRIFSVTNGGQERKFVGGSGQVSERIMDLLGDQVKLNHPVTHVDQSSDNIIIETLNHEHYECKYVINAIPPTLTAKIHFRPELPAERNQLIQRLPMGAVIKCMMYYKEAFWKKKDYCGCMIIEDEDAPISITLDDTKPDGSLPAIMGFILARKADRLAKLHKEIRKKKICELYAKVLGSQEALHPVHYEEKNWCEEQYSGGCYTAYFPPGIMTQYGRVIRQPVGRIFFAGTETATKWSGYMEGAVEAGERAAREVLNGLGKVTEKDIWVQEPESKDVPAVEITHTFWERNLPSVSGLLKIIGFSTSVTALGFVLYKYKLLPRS
Nature of the experiment: MAO-A enzymatic activity, spectrophotometric assay (Amplex Red, tyramine substrate) on membranes of transfected EBNA cells. It counts as biochemical. Particulars: 30 min preincubation at 37° C., pH 7.4, tyramine substrate. As for the experimental part: as §1, §2, §3

Structures can show the parent of a compound that is named as a salt.

For the compound `COC[C@H](C)N1C(=O)c2ccc(OCc3ccc(Br)cc3)cc2C1=O` [Example 28, (S)-5-(4-Bromo-benzyloxy)-2-(2-methoxy-1-methyl-ethyl)-isoindole-1,3-dione], the IC50 against human MAO-B was 34 nM; against human MAO-A, more than 10000 nM.
The matching figures for `COC[C@H](C)N1C(=O)c2ccc(OCc3ccc(F)c(F)c3)cc2C1=O` [Example 31, (S)-5-(3,4-Difluoro-benzyloxy)-2-(2-methoxy-1-methyl-ethyl)-isoindole-1,3-dione]: 32 nM and 3500 nM.
The matching figures for `NCCN1C(=O)c2ccc(OCc3cccc(F)c3)cc2C1=O` [Example 50, 2-(2-Amino-ethyl)-5-(3-fluoro-benzyloxy)-isoindole-1,3-dione 1:1 hydrochloride]: 39 nM and more than 10000 nM.
The corresponding values for `COC(CN1C(=O)c2ccc(OCc3ccc(F)cc3)cc2C1=O)C(F)(F)F` (stereo not drawn) [Example 43] are 45 nM and more than 10000 nM.
For `COC[C@H](C)N1C(=O)c2ccc(OCc3ccc(C#N)cc3)cc2C1=O` [Example 30, (S)-4-[2-(2-Methoxy-1-methyl-ethyl)-1,3-dioxo-2,3-dihydro-1H-isoindol-5-yloxymethyl]-bezonitrile], the IC50 against human MAO-B stood at 129 nM; against human MAO-A, 6200 nM.
The matching figures for `NC(=O)[C@H](CO)N1C(=O)c2ccc(OCc3cccc(F)c3)cc2C1=O` [Example 52, (S)-2-[5-(3-Fluoro-benzyloxy)-1,3-dioxo-1,3-dihydro-isoindol-2-yl]-3-hydroxy-propionamide]: 20 nM and more than 10000 nM.
The corresponding values for `NC(=O)CC(O)CN1C(=O)c2ccc(OCc3ccc(F)cc3)cc2C1=O` (stereo not drawn) [Example 22, 4-[5-(4-Fluoro-benzyloxy)-1,3-dioxo-1,3-dihydro-isoindol-2-yl]-3-hydroxy-butyramide] are 97 nM and more than 10000 nM.
The corresponding values for `O=C1c2ccc(OCc3ccc(F)cc3)cc2C(=O)N1Cc1cccs1` [Example 34, 5-(4-Fluoro-benzyloxy)-2-thiophen-2-ylmethyl-isoindole-1,3-dione] are 81 nM and more than 10000 nM.
Take `O=C1c2ccc(OCc3ccc(F)cc3)cc2C(=O)N1CCO` [Example 12, 5-(4-Fluoro-benzyloxy)-2-(2-hydroxy-ethyl)-isoindole-1,3-dione]: the IC50 against human MAO-B amounted to 4 nM; at human MAO-A it was 369 nM.
The matching figures for `CCSCCN1C(=O)c2ccc(OCc3ccc(F)cc3)cc2C1=O` [Example 19, 2-(2-Ethylsulfanyl-ethyl)-5-(4-fluoro-benzyloxy)-isoindole-1,3-dione]: 11 nM and more than 10000 nM.
Take `CC[S+]([O-])CCN1C(=O)c2ccc(OCc3ccc(F)cc3)cc2C1=O` (stereo not drawn) [Example 38, 2-(2-Ethanesulfinyl-ethyl)-5-(4-fluoro-benzyloxy)-isoindole-1,3-dione]: the IC50 was 115 nM on human MAO-B and more than 10000 nM against human MAO-A.
In the case of `COC[C@H](C)N1C(=O)c2ccc(OCc3cccc(OC)c3)cc2C1=O` [Example 29, (S)-5-(3-Methoxy-benzyloxy)-2-(2-methoxy-1-methyl-ethyl)-isoindole-1,3-dione], the 50% inhibitory concentration (IC50) on human MAO-B was 69 nM; against human MAO-A, more than 10000 nM.
The corresponding values for `NC(=O)[C@H](CO)N1C(=O)c2ccc(OCc3ccc(F)cc3)cc2C1=O` [Example 14, (S)-2-[5-(4-Fluoro-benzyloxy)-1,3-dioxo-1,3-dihydro-isoindol-2-yl]-3-hydroxy-propionamide] are 17 nM and more than 10000 nM.
The corresponding values for `N#CCN1C(=O)c2ccc(OCc3ccc(F)cc3)cc2C1=O` [Example 7] are 34 nM and more than 10000 nM.
The corresponding values for `NCCN1C(=O)c2ccc(OCc3ccc(F)cc3)cc2C1=O` [Example 9, 2-(2-Amino-ethyl)-5-(4-fluoro-benzyloxy)-isoindole-1,3-dione 1:1 hydrochloride] are 32 nM and more than 10000 nM.
As for `COC[C@H](C)N1C(=O)c2ccc(OCc3ccc(OC(F)(F)F)cc3)cc2C1=O` [Example 32, (S)-2-(2-Methoxy-1-methyl-ethyl)-5-(4-trifluoromethoxy-benzyloxy)-isoindole-1,3-dione], the IC50 against human MAO-B was 47 nM; against human MAO-A, more than 10000 nM.
On to `C[C@@H](C(N)=O)N1C(=O)c2ccc(OCc3cccc(F)c3)cc2C1=O` [Example 44, (S)-2-[5-(3-Fluoro-benzyloxy)-1,3-dioxo-1,3-dihydro-isoindol-2-yl]-propionamide], for which the IC50 was 7 nM against human MAO-B and 5760 nM at human MAO-A.
The corresponding values for `C[C@@H](C(N)=O)N1C(=O)c2ccc(OCc3ccc(F)cc3)cc2C1=O` [Example 2, (S)-2-[5-(4-Fluoro-benzyloxy)-1,3-dioxo-1,3-dihydro-isoindol-2-yl]-propionamide] are 8 nM and 776 nM.

As usually defined, the IC50 is the concentration at which inhibition is half-maximal.
